Results taken from PMC7041945, “Misfolded proteins bind and activate death receptor 5 to trigger apoptosis during unresolved endoplasmic reticulum stress” (eLife, 2020).

Tests used:
[1] = tested on: caspase 8 in HCT116 lysates; assay: Caspase 8 activity (caspase glo 8) of cell lysates / IP inputs; assay type: cell-based, Homo sapiens; conditions: for average fold change relative to empty: rep 1, average of 4 dilutions; for Caspase 8 activity, fold change relative to GFP: AVG (n = 3 tech reps); for AVG fold change relative to GFP: average over lysate dilutions; for fold change in caspase 8 activity relative to GFP / avg fold change in caspase 8 activity relative to GFP: input lysates GFP vs INS vs RHO; for avg fold change in caspase 8 activity relative to GFP: average of Rep1 and Rep2; for Mean ± SEM (lysate inputs): relative to GFP, n=2; for norm RLUs: normalized by lysate quant; for 95% confidence interval of difference (lysate inputs) / Difference between means (lysate inputs): vs. GFP
Method: Cells harvested from a 6-well plate were resuspended in 100 μl of lysis buffer (30 mM HEPES pH 7.2, 150 mM NaCl, 1% Triton X-100) and lysed via needle shearing (25G, 10 passes) followed by a 30 min incubation on ice. Supernatant was collected after centrifuging at 1000xg for 5 min. For the caspase activity assay, 10 μl of supernatant diluted with lysis buffer (1:25, 1:50, 1:100 to stay within linear range of luminescence measurements) was incubated with 10 μl of the luminogenic caspase glo 8 substrate (Promega #PRG8200) in a 384-white walled plate (Corning 3574) for 45 min at RT before measuring luminescence on a Spectramax-M5 plate reader.

[2] = tested on: GFP (340+341); assay: qPCR of GFP transcript (expression of GFP-tagged construct); assay type: cell-based; conditions: Rep 2; for avg. fold induction GFP (340+341) / avg. 2^-(deltaCq) GFP (340+341): mean of 3 replicates

## C/C=C(/C)C(=O)O[C@H]1C(C)=C2[C@H]([C@@H]1OC(=O)CCCCCCC)[C@@](C)(OC(C)=O)C[C@H](OC(=O)CCC)[C@@]1(O)[C@H]2OC(=O)[C@@]1(C)O [thapsigargin, reference compound]
[1]; HCT116, no siRNA named
  average fold change relative to empty: 1.771 fold change
[1]; input, dilution 0.01, rep1
  fold change relative to empty: 1.802
[1]; input, dilution 0.01, rep2
  fold change relative to empty: 2.141
[1]; input, dilution 0.01, rep3
  fold change relative to empty: 1.451
[1]; input, dilution 0.02, rep1
  fold change relative to empty: 2.44
[1]; input, dilution 0.02, rep2
  fold change relative to empty: 1.968
[1]; input, dilution 0.02, rep3
  fold change relative to empty: 1.816
[1]; input, dilution 0.02, second listing, relative to avg. empty, average of rep1-rep3
  avg fold change: 2.105
[1]; input, dilution 0.02, second listing, rep2
  fold change relative to empty: 1.992
[1]; input, dilution 0.02, second listing, rep3
  fold change relative to empty: 1.959
[2]; 24 hr, relative to empty traffo
  avg. fold induction GFP (340+341): 0.3377
[2]; 24 hr, relative to empty traffo, replicate 1
  fold induction GFP (340+341): 0.335
[2]; 24 hr, relative to empty traffo, replicate 2
  fold induction GFP (340+341): 0.3372
[2]; 24 hr, relative to empty traffo, replicate 3
  fold induction GFP (340+341): 0.341
[2]; 24 hr, replicate 1
  2^-(deltaCq) GFP (340+341): 5.66e-5
  Cq GFP (340+341): 32.8608
  Cq(sample) - avg Cq(GAPDH), GFP (340+341): 14.1088
[2]; 24 hr, replicate 2
  2^-(deltaCq) GFP (340+341): 5.698e-5
  Cq GFP (340+341): 32.8514
  Cq(sample) - avg Cq(GAPDH), GFP (340+341): 14.0993
[2]; 24 hr, replicate 3
  2^-(deltaCq) GFP (340+341): 5.761e-5
  Cq GFP (340+341): 32.8353
  Cq(sample) - avg Cq(GAPDH), GFP (340+341): 14.0832

## FTWRYQPEGGRDAISIFHYA [MPZ-ecto peptide-eGFP, expressed construct: MPZ ectodomain replaced by the MPZ-ecto peptide, GFP-tagged]
[1]; Rep 1, HCT116, ecto 400 ng, YYEE and Arom-to-E 200 ng
  Caspase 8 activity, fold change relative to GFP: 2.6
[1]; Rep 2, HCT116, ecto 400 ng, YYEE and Arom-to-E 200 ng
  Caspase 8 activity, fold change relative to GFP: 2.183
[1]; Rep 2, HCT116
  AVG fold change relative to GFP: 2.183 fold
[1]; Rep 3, HCT116, ecto 400 ng, YYEE and Arom-to-E 200 ng
  Caspase 8 activity, fold change relative to GFP: 2.309
[1]; Rep 3, HCT116
  AVG fold change relative to GFP: 2.309 fold
[1]; avg of n = 3 biol rep, HCT116, ecto 400 ng, YYEE and Arom-to-E 200 ng, SEM of n = 3 in own column
  Caspase 8 activity, fold change relative to GFP, avg of biological replicates: 2.364

## INS-GFP: GFP-tagged proinsulin expressed from plasmid
[1]; Rep1
  fold change in caspase 8 activity relative to GFP: 2.597 fold
[1]; Rep2
  fold change in caspase 8 activity relative to GFP: 2.0013 fold
[1]
  avg fold change in caspase 8 activity relative to GFP: 2.299 fold
  Mean ± SEM (lysate inputs): 2.299 ± 0.2977, n=2
  95% confidence interval of difference (lysate inputs): 0.01818 to 2.580
  Difference between means (lysate inputs): 1.299 ± 0.2977
[1]; rep 2, dilution 0.025
  norm RLUs: 1827.1 RLUs
[1]; rep 2, dilution 0.05
  norm RLUs: 3654.19 RLUs
[1]; rep 2, dilution 0.1
  norm RLUs: 8264.86 RLUs
[2]; 3 hr, relative to empty traffo
  avg. fold induction GFP (340+341): 6059.51
[2]; 3 hr, relative to empty traffo, replicate 1
  fold induction GFP (340+341): 5553.44
[2]; 3 hr, relative to empty traffo, replicate 2
  fold induction GFP (340+341): 6428.23
[2]; 3 hr, relative to empty traffo, replicate 3
  fold induction GFP (340+341): 6196.87
[2]; 3 hr, replicate 1
  2^-(deltaCq) GFP (340+341): 0.9383
  Cq GFP (340+341): 19.2537
  Cq(sample) - avg Cq(GAPDH), GFP (340+341): 0.0918
[2]; 3 hr, replicate 2
  2^-(deltaCq) GFP (340+341): 1.086
  Cq GFP (340+341): 19.0426
  Cq(sample) - avg Cq(GAPDH), GFP (340+341): -0.1192
[2]; 3 hr, replicate 3
  2^-(deltaCq) GFP (340+341): 1.047
  Cq GFP (340+341): 19.0955
  Cq(sample) - avg Cq(GAPDH), GFP (340+341): -0.06635
[2]; 7 hr, relative to empty traffo
  avg. fold induction GFP (340+341): 36312.6
[2]; 7 hr, relative to empty traffo, replicate 1
  fold induction GFP (340+341): 36506.4
[2]; 7 hr, relative to empty traffo, replicate 2
  fold induction GFP (340+341): 31765.4
[2]; 7 hr, relative to empty traffo, replicate 3
  fold induction GFP (340+341): 40666.1
[2]; 7 hr, replicate 1
  2^-(deltaCq) GFP (340+341): 6.168
  Cq GFP (340+341): 16.6754
  Cq(sample) - avg Cq(GAPDH), GFP (340+341): -2.625
[2]; 7 hr, replicate 2
  2^-(deltaCq) GFP (340+341): 5.3673
  Cq GFP (340+341): 16.8761
  Cq(sample) - avg Cq(GAPDH), GFP (340+341): -2.4242
[2]; 7 hr, replicate 3
  2^-(deltaCq) GFP (340+341): 6.871
  Cq GFP (340+341): 16.5198
  Cq(sample) - avg Cq(GAPDH), GFP (340+341): -2.781
[2]; 24 hr
  avg. 2^-(deltaCq) GFP (340+341): 90.4075
[2]; 24 hr, replicate 1
  2^-(deltaCq) GFP (340+341): 82.5431
  Cq GFP (340+341): 13.3376
  Cq(sample) - avg Cq(GAPDH), GFP (340+341): -6.367
[2]; 24 hr, replicate 2
  2^-(deltaCq) GFP (340+341): 92.9155
  Cq GFP (340+341): 13.1668
  Cq(sample) - avg Cq(GAPDH), GFP (340+341): -6.538
[2]; 24 hr, replicate 3
  2^-(deltaCq) GFP (340+341): 95.7639
  Cq GFP (340+341): 13.1232
  Cq(sample) - avg Cq(GAPDH), GFP (340+341): -6.581

## RHO-GFP: GFP-tagged rhodopsin expressed from plasmid
[1]; HCT116, siDR5
  average fold change relative to empty: 1.375 fold change
[1]; HCT116, siNT
  average fold change relative to empty: 3.026 fold change
[1]; Rep1
  fold change in caspase 8 activity relative to GFP: 3.178 fold
[1]; Rep2
  fold change in caspase 8 activity relative to GFP: 3.026 fold
[1]
  avg fold change in caspase 8 activity relative to GFP: 3.102 fold
  Mean ± SEM (lysate inputs): 3.102 ± 0.07579, n=2
  95% confidence interval of difference (lysate inputs): 1.776 to 2.428
  Difference between means (lysate inputs): 2.102 ± 0.07579
[1]; rep 2, average of 3 dilutions
  average fold change relative to GFP: 3.178 fold change
[1]; rep 2, dilution 0.025
  norm RLUs: 2013.77 RLUs
[1]; rep 2, dilution 0.05
  norm RLUs: 4641.15 RLUs
[1]; rep 2, dilution 0.1
  norm RLUs: 10576.5 RLUs
[2]; 3 hr, replicate 1
  2^-(deltaCq) GFP (340+341): 0.5385
  Cq GFP (340+341): 20.6309
  Cq(sample) - avg Cq(GAPDH), GFP (340+341): 0.893
[2]; 3 hr, replicate 2
  2^-(deltaCq) GFP (340+341): 0.6201
  Cq GFP (340+341): 20.4274
  Cq(sample) - avg Cq(GAPDH), GFP (340+341): 0.6895
[2]; 3 hr, replicate 3
  2^-(deltaCq) GFP (340+341): 0.5059
  Cq GFP (340+341): 20.721
  Cq(sample) - avg Cq(GAPDH), GFP (340+341): 0.9831
[2]; 3 hr, vs 24 hr cytoGFP (empty traffo)
  avg. fold induction GFP (340+341): 0.02018
[2]; 3 hr, vs 24 hr cytoGFP (empty traffo), replicate 1
  fold induction GFP (340+341): 0.01959
[2]; 3 hr, vs 24 hr cytoGFP (empty traffo), replicate 2
  fold induction GFP (340+341): 0.02256
[2]; 3 hr, vs 24 hr cytoGFP (empty traffo), replicate 3
  fold induction GFP (340+341): 0.0184
[2]; 7 hr, replicate 1
  2^-(deltaCq) GFP (340+341): 2.306
  Cq GFP (340+341): 18.4525
  Cq(sample) - avg Cq(GAPDH), GFP (340+341): -1.205
[2]; 7 hr, replicate 2
  2^-(deltaCq) GFP (340+341): 2.483
  Cq GFP (340+341): 18.3457
  Cq(sample) - avg Cq(GAPDH), GFP (340+341): -1.312
[2]; 7 hr, replicate 3
  2^-(deltaCq) GFP (340+341): 2.811
  Cq GFP (340+341): 18.1671
  Cq(sample) - avg Cq(GAPDH), GFP (340+341): -1.4909
[2]; 7 hr, vs 24 hr cytoGFP (empty traffo)
  avg. fold induction GFP (340+341): 0.09215
[2]; 7 hr, vs 24 hr cytoGFP (empty traffo), replicate 1
  fold induction GFP (340+341): 0.08389
[2]; 7 hr, vs 24 hr cytoGFP (empty traffo), replicate 2
  fold induction GFP (340+341): 0.09033
[2]; 7 hr, vs 24 hr cytoGFP (empty traffo), replicate 3
  fold induction GFP (340+341): 0.1022
[2]; 24 hr
  avg. 2^-(deltaCq) GFP (340+341): 71.8905
[2]; 24 hr, replicate 1
  2^-(deltaCq) GFP (340+341): 62.5314
  Cq GFP (340+341): 13.0515
  Cq(sample) - avg Cq(GAPDH), GFP (340+341): -5.967
[2]; 24 hr, replicate 2
  2^-(deltaCq) GFP (340+341): 61.8163
  Cq GFP (340+341): 13.0681
  Cq(sample) - avg Cq(GAPDH), GFP (340+341): -5.95
[2]; 24 hr, replicate 3
  2^-(deltaCq) GFP (340+341): 91.3236
  Cq GFP (340+341): 12.5051
  Cq(sample) - avg Cq(GAPDH), GFP (340+341): -6.513
[2]; 24 hr, vs 24 hr cytoGFP (empty traffo)
  avg. fold induction GFP (340+341): 2.615
[2]; 24 hr, vs 24 hr cytoGFP (empty traffo), replicate 1
  fold induction GFP (340+341): 2.275
[2]; 24 hr, vs 24 hr cytoGFP (empty traffo), replicate 2
  fold induction GFP (340+341): 2.2486
[2]; 24 hr, vs 24 hr cytoGFP (empty traffo), replicate 3
  fold induction GFP (340+341): 3.322
